Laboratory results from ChEMBL document CHEMBL1138822, “Bis-quinolinium cyclophanes: toward a pharmacophore model for the blockade of apamin-sensitive SKCa channels in sympathetic neurons” (Bioorg Med Chem Lett, 2004).

The compounds below were run against Small conductance calcium-activated potassium channel (Rattus norvegicus, UniProt P70604+P70606+P70605) (assay: Inhibition of after hyperpolarization (AHP) of cultured rat sympathetic neurons as SKCa channel blocking activity). Details: sympathetic neuron.
Type: functional, cell-based

Row | IC50 [nM] | SMILES
1 | 40 | c1ccc2c(c1)c1cc[n+]2CCCC[n+]2ccc(c3ccccc32)NCCCCN1
2 | 190 | [I-].[I-].c1ccc2c(c1)c1cc[n+]2CCCCCCCC[n+]2ccc(c3ccccc32)NCCCCCCCCN1
3 | 12 | c1ccc2c(c1)c1cc[n+]2CCCCC[n+]2ccc(c3ccccc32)NCCCCCCN1
4 | 25 | c1cc2cc(c1)C[n+]1ccc(c3ccccc31)NCCCNc1cc[n+](c3ccccc13)C2
5 | 31 | c1cc2cc(c1)C[n+]1ccc(c3ccccc31)NCCCCCNc1cc[n+](c3ccccc13)C2
6 | 15 | c1ccc2c(c1)c1cc[n+]2CCCC[n+]2ccc(c3ccccc32)NCCCCCN1
7 | 9 | c1ccc2c(c1)c1cc[n+]2CCCCC[n+]2ccc(c3ccccc32)NCCCCN1
8 | 16 | c1ccc2c(c1)c1cc[n+]2CCCCCC[n+]2ccc(c3ccccc32)NCCCCCN1
9 | 30 | c1ccc2c(c1)c1cc[n+]2CCCCC[n+]2ccc(c3ccccc32)NCCCN1
10 | 260 | c1ccc2c(c1)c1cc[n+]2CCCCCCCCCC[n+]2ccc(c3ccccc32)NCCCCCCCCCCN1
11 | 65 | c1ccc2c(c1)c1cc[n+]2CCCCCC[n+]2ccc(c3ccccc32)NCc2ccc(cc2)CN1
12 | 60 | c1ccc2c(c1)c1cc[n+]2CCCCCC[n+]2ccc(c3ccccc32)NCCCCCCN1
13 | 60 | c1ccc2c(c1)c1cc[n+]2CCCCC[n+]2ccc(c3ccccc32)NCc2ccc(cc2)CN1
14 | 35 | c1cc2cc(c1)C[n+]1ccc(c3ccccc31)NCCCCCCNc1cc[n+](c3ccccc13)C2
15 | 150 | c1ccc2c(c1)c1cc[n+]2CCC[n+]2ccc(c3ccccc32)NCc2ccc(cc2)CN1
16 | 630 | c1ccc2c(c1)c1cc[n+]2CCC[n+]2ccc(c3ccccc32)NCCCN1 (stereo in doubt; 2l)
17 | 380 | c1ccc2c(c1)c1cc[n+]2CCC[n+]2ccc(c3ccccc32)NCCCN1 (stereo in doubt; 2m)
18 | 900 | Cc1cc(N)c2ccccc2[n+]1CCCCCCCCCC[n+]1c(C)cc(N)c2ccccc21.[Cl-].[Cl-] [DEQUALINIUM CHLORIDE]

Row | SMILES | IC50 [nM]
19 | [I-].[I-].c1ccc2c(c1)c1cc[n+]2CCCCC[n+]2ccc(c3ccccc32)NCCCCCN1 | 2
